Test results as given in the NIST ThermoML archive (doi:10.1016/j.jct.2017.06.001).

Assay: xn = mol fraction of the nth substance listed
Conditions: 100 kPa, Liquid; for speed of sound: Frequency=5 MHz, Pulse-echo method; for mass density: Vibrating tube method

OCCCCCO [1,5-pentanediol] + O
Conditions | mass density [kg/m3] | speed of sound [m/s]
293.15 K, x1 = 0.005 | 997.92 | –
293.15 K, x1 = 0.0101 | 997.99 | –
293.15 K, x1 = 0.0196 | 998.58 | –
293.15 K, x1 = 0.0251 | 999.15 | –
293.15 K, x1 = 0.0304 | 999.8 | –
293.15 K, x1 = 0.05 | 1001.74 | –
293.15 K, x1 = 0.0769 | 1003.5 | –
293.15 K, x1 = 0.1002 | 1004.72 | –
293.15 K, x1 = 0.1438 | 1005.61 | –
293.15 K, x1 = 0.1548 | – | 1691.8
293.15 K, x1 = 0.1602 | – | 1692.6
293.15 K, x1 = 0.1649 | – | 1693.2
293.15 K, x1 = 0.1671 | – | 1693.5
293.15 K, x1 = 0.1718 | – | 1694
293.15 K, x1 = 0.1738 | – | 1694.1
293.15 K, x1 = 0.1776 | – | 1694.5
293.15 K, x1 = 0.1807 | – | 1694.7
293.15 K, x1 = 0.1845 | 1005.62 | –
293.15 K, x1 = 0.1846 | – | 1694.9
293.15 K, x1 = 0.1875 | – | 1695.1
293.15 K, x1 = 0.19 | – | 1695.2
293.15 K, x1 = 0.1941 | – | 1695.4
293.15 K, x1 = 0.1964 | – | 1695.5
293.15 K, x1 = 0.2006 | – | 1695.5
293.15 K, x1 = 0.2029 | – | 1695.6
293.15 K, x1 = 0.2051 | – | 1695.6
293.15 K, x1 = 0.2087 | – | 1695.7
293.15 K, x1 = 0.2114 | – | 1695.7
293.15 K, x1 = 0.2217 | – | 1695.6
293.15 K, x1 = 0.2315 | – | 1695.4
293.15 K, x1 = 0.2384 | – | 1695.2
293.15 K, x1 = 0.246 | – | 1695
293.15 K, x1 = 0.2503 | 1004.77 | –
293.15 K, x1 = 0.2552 | – | 1694.6
293.15 K, x1 = 0.2648 | – | 1694.1
293.15 K, x1 = 0.2739 | – | 1693.7
293.15 K, x1 = 0.2857 | – | 1693
293.15 K, x1 = 0.2983 | – | 1692.1
293.15 K, x1 = 0.3 | 1003.78 | –
293.15 K, x1 = 0.3133 | – | 1691.1
293.15 K, x1 = 0.3287 | – | 1689.9
293.15 K, x1 = 0.3343 | 1003.14 | –
293.15 K, x1 = 0.3552 | – | 1687.7
293.15 K, x1 = 0.3729 | – | 1686.1
293.15 K, x1 = 0.4002 | – | 1683.5
293.15 K, x1 = 0.4171 | 1001.32 | –
293.15 K, x1 = 0.4241 | – | 1681
293.15 K, x1 = 0.4527 | – | 1677.7
293.15 K, x1 = 0.454 | 1000.44 | –
293.15 K, x1 = 0.478 | – | 1674.7
293.15 K, x1 = 0.5003 | 999.3 | –
293.15 K, x1 = 0.5024 | – | 1671.6
293.15 K, x1 = 0.5266 | – | 1668.4
293.15 K, x1 = 0.5362 | 998.5 | –
293.15 K, x1 = 0.5491 | – | 1665.3
293.15 K, x1 = 0.5701 | – | 1662.4
293.15 K, x1 = 0.5912 | – | 1659.4
293.15 K, x1 = 0.6123 | – | 1656.4
293.15 K, x1 = 0.6177 | 996.9 | –
293.15 K, x1 = 0.631 | – | 1653.7
293.15 K, x1 = 0.6478 | 996.3 | –
293.15 K, x1 = 0.656 | – | 1650.2
293.15 K, x1 = 0.6746 | – | 1647.5
293.15 K, x1 = 0.6953 | – | 1644.6
293.15 K, x1 = 0.7025 | 995.2 | –
293.15 K, x1 = 0.7147 | – | 1641.9
293.15 K, x1 = 0.7344 | – | 1639.1
293.15 K, x1 = 0.7504 | 994.4 | –
293.15 K, x1 = 0.7546 | – | 1636.4
293.15 K, x1 = 0.7797 | – | 1633
293.15 K, x1 = 0.7927 | 993.6 | –
293.15 K, x1 = 0.8014 | – | 1630.2
293.15 K, x1 = 0.8265 | – | 1627
293.15 K, x1 = 0.8497 | – | 1624.1
293.15 K, x1 = 0.8605 | 992.3 | –
293.15 K, x1 = 0.8696 | – | 1621.6
293.15 K, x1 = 0.9004 | 991.5 | –
293.15 K, x1 = 0.9029 | – | 1617.5
293.15 K, x1 = 0.9198 | – | 1615.4
293.15 K, x1 = 0.9259 | – | 1614.7
293.15 K, x1 = 0.9367 | – | 1613.3
293.15 K, x1 = 0.9484 | – | 1611.8
293.15 K, x1 = 0.9496 | 990.4 | –
293.15 K, x1 = 0.9601 | – | 1610.3
293.15 K, x1 = 0.97 | – | 1609.1
293.15 K, x1 = 0.9804 | – | 1607.7
293.15 K, x1 = 0.9884 | – | 1606.6
293.15 K, x1 = 0.9943 | – | 1605.8
293.15 K, x1 = 1 | 989.3 | 1605
298.15 K, x1 = 0.0002 | – | 1497.3
298.15 K, x1 = 0.0006 | – | 1498.9
298.15 K, x1 = 0.0012 | – | 1501.2
298.15 K, x1 = 0.0018 | – | 1503.4
298.15 K, x1 = 0.0026 | – | 1506.3
298.15 K, x1 = 0.004 | – | 1511.1
298.15 K, x1 = 0.0054 | – | 1515.9
298.15 K, x1 = 0.0067 | – | 1520.1
298.15 K, x1 = 0.0083 | – | 1525.4
298.15 K, x1 = 0.0097 | – | 1529.9
298.15 K, x1 = 0.0113 | – | 1534.7
298.15 K, x1 = 0.0123 | – | 1537.8
298.15 K, x1 = 0.0138 | – | 1542.2
298.15 K, x1 = 0.0153 | – | 1546.5
298.15 K, x1 = 0.0168 | – | 1550.8
298.15 K, x1 = 0.0184 | – | 1555.2
298.15 K, x1 = 0.0195 | – | 1558
298.15 K, x1 = 0.0205 | – | 1560.8
298.15 K, x1 = 0.0221 | – | 1564.7
298.15 K, x1 = 0.0243 | – | 1570.1
298.15 K, x1 = 0.0264 | – | 1575.3
298.15 K, x1 = 0.0287 | – | 1580.3
298.15 K, x1 = 0.0308 | – | 1584.9
298.15 K, x1 = 0.0326 | – | 1588.7
298.15 K, x1 = 0.0347 | – | 1593
298.15 K, x1 = 0.0362 | – | 1596.1
298.15 K, x1 = 0.0378 | – | 1599.1
298.15 K, x1 = 0.0396 | – | 1602.6
298.15 K, x1 = 0.0414 | – | 1605.7
298.15 K, x1 = 0.0432 | – | 1608.9
298.15 K, x1 = 0.045 | – | 1612
298.15 K, x1 = 0.0465 | – | 1614.4
298.15 K, x1 = 0.0484 | – | 1617.3
298.15 K, x1 = 0.0503 | – | 1620.2
298.15 K, x1 = 0.0523 | – | 1623.2
298.15 K, x1 = 0.0539 | – | 1625.4
298.15 K, x1 = 0.0554 | – | 1627.5
298.15 K, x1 = 0.057 | – | 1629.7
298.15 K, x1 = 0.0588 | – | 1631.9
298.15 K, x1 = 0.0607 | – | 1634.3
298.15 K, x1 = 0.0624 | – | 1636.4
298.15 K, x1 = 0.0647 | – | 1639
298.15 K, x1 = 0.0672 | – | 1641.8
298.15 K, x1 = 0.0698 | – | 1644.5
298.15 K, x1 = 0.0724 | – | 1647.1
298.15 K, x1 = 0.0743 | – | 1648.9
298.15 K, x1 = 0.0774 | – | 1651.7
298.15 K, x1 = 0.0814 | – | 1655.1
298.15 K, x1 = 0.0847 | – | 1657.7
298.15 K, x1 = 0.0877 | – | 1659.9
298.15 K, x1 = 0.0907 | – | 1661.9
298.15 K, x1 = 0.0941 | – | 1664.1
298.15 K, x1 = 0.0968 | – | 1665.7
298.15 K, x1 = 0.0975 | – | 1666.1
298.15 K, x1 = 0.1007 | – | 1667.9
298.15 K, x1 = 0.1013 | – | 1668.2
298.15 K, x1 = 0.1045 | – | 1669.8
298.15 K, x1 = 0.1057 | – | 1670.4
298.15 K, x1 = 0.108 | – | 1671.4
298.15 K, x1 = 0.1105 | – | 1672.6
298.15 K, x1 = 0.1112 | – | 1672.8
298.15 K, x1 = 0.1142 | – | 1674
298.15 K, x1 = 0.1158 | – | 1674.7
298.15 K, x1 = 0.1173 | – | 1675.2
298.15 K, x1 = 0.1201 | – | 1676.2
298.15 K, x1 = 0.1217 | – | 1676.7
298.15 K, x1 = 0.1233 | – | 1677.2
298.15 K, x1 = 0.1262 | – | 1678.1
